Results reported in patent publication US20030162834A1, “Natural physiologically active material effective on fish diseases and fish food containing the material” (priority 1998, published 2003).

Columns and labels:
[1] = tested on: Edwardsiella tarda; assay: Trial 11: turbidimetric antibacterial assay; type: cell-based; conditions: 500 ppm in BHI liquid culture medium, 13 hours, 23 degrees centigrade
Experimental: (§1) The turbidimetric analysis was employed. Fatty acids of C2, C4, C6-C10 were each dissolved in 2 ml of BHI liquid culture medium at 500 ppm concentration. A number 1×10^5 of typical bacteria (Vibrio anguillarum, Edwardsiella tarda and Enterococcus seriolicida) causing the fish bacterial diseases were inoculated in each adjusted culture medium, followed by cultivation for 13 hours at 23 degrees centigrade. After the cultivation, turbidity of the culture medium was measured at 600 nm to determine the amount of multiplied bacteria. The trial was conducted two times. Results are shown in FIG. 19 (Vibrio anguillarum), FIG. 20 (Edwardsiella tarda), and FIG. 21 (Enterococcus seriolicida).

[2] = tested on: Enterococcus seriolicida; assay: Trial 11: turbidimetric antibacterial assay; type: cell-based; conditions: 500 ppm in BHI liquid culture medium, 13 hours, 23 degrees centigrade
Experimental: as §1

[3] = tested on: Vibrio anguillarum; assay: Trial 11: turbidimetric antibacterial assay; type: cell-based; conditions: 500 ppm in BHI liquid culture medium, 13 hours, 23 degrees centigrade
Experimental: as §1

[4] = tested on: parasites (Heterobothrium okamotoi, Cryptocaryon irritans); assay: Trial 1: overall statements on efficacy of fatty acids against parasites; type: cell-based; conditions: Trial 1 summary; C12 at a low concentration, not the same condition
Experimental: Fatty acids having carbon number C2, C4 and C6-C10 were each dissolved in seawater at 1 mM concentration, and oncomiracidia of Heterobothrium okamotoi and larvae attaching to the gill were immersed in the seawater solutions. After 2 hours from the start of immersion, the efficacy of the fatty acids was investigated by counting the number of dead oncomiracidia and the number of larvae dropping down from the gill. More than 30 individuals of parasites were transferred to each group.
For Cryptocaryon irritans, fatty acids having carbon number C2, C4 and C6-C10 were each dissolved in seawater at 0.5 mM concentration, and theronts of Cryptocaryon irritans were immersed in the seawater solutions. After 1 hour from the start of immersion, the efficacy of the fatty acids was investigated by counting the number of dead theronts. More than 200 individuals of parasites were transferred to each group.
For any of the groups, the trial was made under condition of 20 degrees centigrade.

[5] = tested on: fish bacteria; assay: Trial 11: overall statement on C12 against fish bacteria; type: cell-based; conditions: low concentration, not the same condition as 500 ppm
Experimental: The turbidimetric analysis was employed. […] A number 1×10^5 of typical bacteria (Vibrio anguillarum, Edwardsiella tarda and Enterococcus seriolicida) causing the fish bacterial diseases were inoculated in each adjusted culture medium, followed by cultivation for 13 hours at 23 degrees centigrade. After the cultivation, turbidity of the culture medium was measured at 600 nm to determine the amount of multiplied bacteria. The trial was conducted two times. Results are shown in FIG. 19 (Vibrio anguillarum), FIG. 20 (Edwardsiella tarda), and FIG. 21 (Enterococcus seriolicida).

[6] = Solubility; type: physicochemical
[7] = tested on: Cryptocaryon irritans; assay: Trial 8: octanoic acid versus its monoglyceride and triglyceride, oral, red sea bream; type: in vivo; conditions: diet amount equal to 17.5 mM octanoic acid residues (2.5 g acid, 3.8 g monoglyceride, 2.7 g triglyceride per kg)
Text: Fish tested: Red sea bream weighing approximately 15.8 g in average.
Trial groups: Four groups, i.e., an octanoic-acid added group in which fish were fed diets added with octanoic acid, a monoglyceride added group in which fish were fed diets added with monoglyceride of octanoic acid, a triglyceride added group in which fish were fed diets added with triglyceride of octanoic acid, and a control group in which fish were fed diets added with neither octanoic acid nor glycerides. The feeding rate was 3% of fish weight/day for each group.
Trial diets: The diets added with octanoic acid were prepared by spraying 2.5 g (17.5 mM with respect to the diet weight) of octanoic acid to 1 kg of commercially available pellets for red sea bream. […]. Specifically, the diets added with monoglyceride and triglyceride were prepared respectively by spraying 3.8 g of monoglyceride and 2.7 g of triglyceride to 1 kg of the commercially available pellets for red sea bream. The control group fish were fed the commercially available pellets for red sea bream.
Challenge trial: Each 10 pieces of fish from among a shoal of fish, in which no diseases such as Cryptocaryon irritans infection were found, were put in a 100-liter water tank, and were fed the respective trial diets. After 5 days, approximately 2000 individuals of theronts of Cryptocaryon irritans were put into each water tank to infect the fish while water flow was stopped for 1 hour. Then, bleeding was continued for 31 days while feeding the respective trial diets. During the trial period, the water temperature was 24+−1 degrees centigrade and the water was exchanged at 20 cycles/day.
Evaluation was made by sampling 5 pieces of fish from each group after 18 and 31 days from the start of the challenge, and comparing the number of the parasites attaching to the gill of each fish.

[8] = tested on: Cryptocaryon irritans; assay: In vitro assay of glycerides of octanoic acid against Cryptocaryon irritans; type: cell-based
[9] = tested on: Vibrio sp. infection and gliding bacterium infection; assay: Trial 12: bleeding trial on spotted plaice with occurred bacterial disease; type: in vivo
Text: Spotted plaice weighing approximately 60 g in average was employed in this trial. Each 270 pieces of spotted plaice were put in off-shore net pens of 4×4×2.5 m, and bled for 100 days. […] The number of dead fish and the fish situations were observed. The fish were fed twice per day, i.e., in the morning and evening. The water temperature during the trial period was in the range of 14-17 degrees centigrade.

[10] = tested on: Heterobothrium okamotoi; conditions: drug bath about one hour, about 800 ppm formalin; cited from earlier work
[11] = diets containing 0.5% decanoic acid fed from the 64-th day

SMILES: CCCCCCCCC(=O)O [C9, pelargonic acid]
- antibacterial activity (turbidity at 600 nm) [1]: showed an antibacterial activity
- antibacterial activity (turbidity at 600 nm) [2]: showed an antibacterial activity
- antibacterial activity (turbidity at 600 nm) [3]: showed an antibacterial activity

SMILES: CCCCCCCCCCCC(=O)O [C12, lauric acid]
- efficacy against parasites [4]: a similar activity was found even at a low concentration
- antibacterial activity [5]: a similar activity was found even at a low concentration
- solubility in seawater ([6]; Trial 1 conditions (1 mM / 0.5 mM)): so low in solubility that the trial could not be made under the same condition
- solubility in BHI liquid culture medium ([6]; Trial 11 conditions (500 ppm)): so low in solubility that the trial could not be made under the same condition

SMILES: CCCCCCCC(=O)OCC(O)CO (stereo not drawn) [monoglyceride of octanoic acid]
- number of parasites attaching to the gill after 18 and 31 days, versus control [7]: apparently fewer
- antibacterial activity against Cryptocaryon irritans [8]: an antibacterial activity though at a lower level than octanoic acid

SMILES: CN(C)[C@@H]1C(O)=C(C(N)=O)C(=O)[C@@]2(O)C(O)=C3C(=O)c4c(O)cccc4[C@@](C)(O)[C@H]3[C@H](O)[C@@H]12 [OTC, exytetracycline, reference compound]
- number of dead fish after application ([9]; OTC in diet 6 days (22-th to 27-th day), 0.5 g of 10% OTC/kg of fish weight): reduced
- complete remedy of the Vibrio sp. infection ([9]; OTC in diet 6 days, 0.5 g of 10% OTC/kg of fish weight): not confirmed

SMILES: CCCCCCCC(=O)OCC(COC(=O)CCCCCCC)OC(=O)CCCCCCC [triglyceride of octanoic acid]
- number of parasites attaching to the gill after 18 and 31 days, versus control [7]: apparently fewer
- antibacterial activity against Cryptocaryon irritans [8]: no antibacterial activity

SMILES: C=O [formalin]
- effect on adult parasites [10]: cannot destroy adult parasites at all
- larvae destroyed [10]: ≤ 80%

SMILES: CCCCCCCCCC(=O)O [decanoic acid]
- antibacterial activity (turbidity at 600 nm) [1]: showed an antibacterial activity
- antibacterial activity (turbidity at 600 nm) [2]: showed an antibacterial activity
- antibacterial activity (turbidity at 600 nm) [3]: showed an antibacterial activity
- dead fish after the 72-th day from the start of the trial [9, 11]: no dead fish were found
- fish suffering abrasion and bleeding due to the infections [9, 11]: not found
- number of dead fish after feeding [9, 11]: apparently reduced
